The text below walks through data of publication PMC12811997 (Chemmedchem, 2025).

For series [1], the target named is SARS‐CoV‐2 RdRp complex (nsp12, nsp7, nsp8) (Severe acute respiratory syndrome coronavirus 2, UniProt P0DTD1). The series can be described thus: biochemical. To be noted: AUC with compound / AUC of noninhibited reaction. The series is classed as biochemical.
The subject of the next series is SARS‐CoV‐2. The series can be described thus: microbe, parasite or virus in culture. The format is cell-based. To be noted: Calu‐3 cells infected with SARS‐CoV‐2, concentration required to reduce viral cytopathic effect by 50%, read-out: EC50. A general note: Cytopathic effects are the visible damage that an infection or toxin causes in cultured cells.
Another series has as its system Calu‐3 cells. The note with it: read-out: CC50 ± SE, concentration required to reduce cell viability by 50%.
Series [2] is described as follows: Chemical stability in aqueous solution. The format is physicochemical.
A short description of the next series: in vitro. The note with it: human.

≈ marks a conversion by molar mass, not a printed value. Read-outs that look alike come from different tables or passages of the source.

Procedure for Calu‐3 cells: (§1) Cytotoxicity was evaluated by incubating the same two‐fold serial dilutions of each compound with Calu‐3 cells as above but without the virus. Following 3 days of incubation at 37 °C in 5% CO2, the cell viability was determined by the addition of XTT solution as above. The compound cytotoxic concentrations resulting in a 50% reduction of absorbance (CC50) were calculated from plots of the percentage of absorbance versus log10 of drug concentration as above.
Procedure for in vitro: as §1

Broadly, the EC50 is the concentration giving half of the maximal effect. For the compound “Ethyl 1‐(4‐(3‐(3,5‐Dichlorophenyl)Ureido)‐2‐(Trifluoromethyl)Benzyl)Piperidine‐4‐Carboxylate Hydrochloride [Compound 67]”, the “RA ± SD (residual activity of RdRp)” value in series [1] (at 10 μM concentration of screened compounds) is 51 ± 11%. Also, the EC50 in the series on SARS‐CoV‐2 was above 9 µM. The CC50 in the series with Calu‐3 cells amounted to 9 ± 0.38 µM.

For orientation: kinetic solubility means solubility judged after dilution from a stock solution rather than from solid. On to `O=C(Nc1cc(Cl)cc(Cl)c1)Nc1ccc(CN2CCOC(=O)C2)c(C(F)(F)F)c1` [Compound 64, 1‐(3,5‐Dichlorophenyl)‐3‐(4‐((2‐Oxomorpholino)Methyl)‐3‐(Trifluoromethyl)Phenyl)Urea], for which the remaining activity at 10 µM in series [1] (read-out: RA ± SD (residual activity of RdRp), at 10 μM concentration of screened compounds) was determined as 39 ± 12%. Further, the EC50 in the series with SARS‐CoV‐2 (Severe acute respiratory syndrome coronavirus 2) was above 38 µM. The chemical stability result in series [2] was “chemically unstable and underwent rapid hydrolysis in aqueous solution”. In addition, in the series “in vitro”, the CC50 at 3 days is 38 ± 8.2 µM. In addition, in “Kinetic solubility” (kinetic from dmso stock), the kinetic solubility worked out at 21 ± 2 µM (≈ 9.71 µg/mL). Further, the “increase in kinetic solubility compared with compound 39” value in “Kinetic solubility” (relative to compound 39) is recorded as 5 fold.
